Test results as given in patent US20260209248A1, “INHIBITORS OF KIF18A AND USES THEREOF” (Insilico Medicine IP Limited, priority 2022, published 2026).

Target: T1, KIF18A (Homo sapiens, UniProt Q8NI77)
T1 sequence (Q8NI77 1-898): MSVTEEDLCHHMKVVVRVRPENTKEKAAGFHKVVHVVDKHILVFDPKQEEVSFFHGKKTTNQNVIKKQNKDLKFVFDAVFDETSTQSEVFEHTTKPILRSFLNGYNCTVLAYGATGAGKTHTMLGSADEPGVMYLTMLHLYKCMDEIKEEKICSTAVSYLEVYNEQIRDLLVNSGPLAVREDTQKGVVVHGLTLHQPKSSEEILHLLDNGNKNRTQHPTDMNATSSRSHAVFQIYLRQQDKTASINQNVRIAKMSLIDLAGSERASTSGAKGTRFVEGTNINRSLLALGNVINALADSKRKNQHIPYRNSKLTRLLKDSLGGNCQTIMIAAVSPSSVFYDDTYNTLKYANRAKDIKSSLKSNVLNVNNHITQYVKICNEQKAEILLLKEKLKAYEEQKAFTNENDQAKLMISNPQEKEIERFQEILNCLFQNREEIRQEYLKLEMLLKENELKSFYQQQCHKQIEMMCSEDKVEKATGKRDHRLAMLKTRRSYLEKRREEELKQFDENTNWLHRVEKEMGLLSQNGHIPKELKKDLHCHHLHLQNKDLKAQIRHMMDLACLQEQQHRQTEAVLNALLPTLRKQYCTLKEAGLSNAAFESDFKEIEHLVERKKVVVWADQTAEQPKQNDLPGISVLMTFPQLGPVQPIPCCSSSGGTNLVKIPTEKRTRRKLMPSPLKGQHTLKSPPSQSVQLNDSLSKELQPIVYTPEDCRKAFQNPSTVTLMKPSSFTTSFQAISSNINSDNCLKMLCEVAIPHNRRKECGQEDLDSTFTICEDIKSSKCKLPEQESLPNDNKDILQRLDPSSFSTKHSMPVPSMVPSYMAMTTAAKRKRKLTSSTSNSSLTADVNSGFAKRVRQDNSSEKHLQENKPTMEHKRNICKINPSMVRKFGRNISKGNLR
Test: KIF18A Assay (ADP Glo luminescence)
Assay type: biochemical
Settings: enzyme pre-incubated 15 min at 25° C., ATP reaction 60 min, 10 pts 1:3 dilution
Description: The KIF18A assay was performed as follows:
1.1. Prepared 1× kinase Buffer 1.2. […] 1.3. Data analysis−Calculated IC50 and plot dose-response curve of compounds: • Calculated IC50 by fitting % Inhibition values and log of compound concentrations to nonlinear regression (dose response−variable slope) with GraphPad 6.0.
[formula] • X: log of inhibitor concentration; Y: % Inhibition

SMILES	IC50
O=C(Nc1ccnc2c1OCC1COCCN21)c1ccc(NS(=O)(=O)CCO)cc1N1CCC2(CC1)CC2 (stereo not drawn) [EX01, 4-((2-hydroxyethyl)sulfonamido)-2-(6-azaspiro[2.5]octan-6-yl)-N-(6a,7,9,10-tetrahydro-6H-[1,4]oxazino[4,3-d]pyrido[3,2-b][1,4]oxazin-4-yl)benzamide]	< 0.05 µM
COCCS(=O)(=O)N1CCc2cc(C(=O)Nc3cccc(N4CCOCC4)n3)c(N3CCC4(CC3)CC4)cc21 [EX13, 1-((2-methoxyethyl)sulfonyl)-N-(6-morpholinopyridin-2-yl)-6-(6-azaspiro[2.5]octan-6-yl)indoline-5-carboxamide]	0.5 to 15 µM
O=C(Nc1cccc(N2CCOCC2)n1)c1cc2c(cc1N1CCC3(CC1)CC3)N(S(=O)(=O)CCO)CC2 [EX14, 1-((2-hydroxyethyl)sulfonyl)-N-(6-morpholinopyridin-2-yl)-6-(6-azaspiro[2.5]octan-6-yl)indoline-5-carboxamide]	< 0.05 µM
Cc1cc(NC(=O)c2cc3c(cc2N2CCC4(CC2)CC4)N(S(=O)(=O)CCO)CC3)nc(N2CCC(F)(F)CC2)n1 [EX15, N-(2-(4,4-difluoropiperidin-1-yl)-6-methylpyrimidin-4-yl)-1-((2-hydroxyethyl)sulfonyl)-6-(6-azaspiro[2.5]octan-6-yl)indoline-5-carboxamide]	< 0.05 µM
O=C(Nc1ccc(=O)n(C2CC(F)(F)C2)n1)c1cc2c(cc1N1CCC3(CC1)CC3)N(S(=O)(=O)CCO)CC2 [EX18, N-(1-(3,3-difluorocyclobutyl)-6-oxo-1,6-dihydropyridazin-3-yl)-1-((2-hydroxyethyl)sulfonyl)-6-(6-azaspiro[2.5]octan-6-yl)indoline-5-carboxamide]	< 0.05 µM
O=C(Nc1ccnc2c1OCC1CC(F)(F)CCN21)c1cc2c(cc1N1CCC3(CC1)CC3)N(S(=O)(=O)CCO)CC2 (stereo not drawn) [EX19, N-(8,8-difluoro-6,6a,7,8,9,10-hexahydrodipyrido[3,2-b:1′,2′-d][1,4]oxazin-4-yl)-1-((2-hydroxyethyl)sulfonyl)-6-(6-azaspiro[2.5]octan-6-yl)indoline-5-carboxamide]	< 0.05 µM
Cc1cc(NC(=O)c2cc3c(cc2N2CCC4(CC2)CC4)N(S(C)(=O)=O)CC3)nc(N2CCC(F)(F)CC2)n1 [EX20, N-(2-(4,4-difluoropiperidin-1-yl)-6-methylpyrimidin-4-yl)-1-(methylsulfonyl)-6-(6-azaspiro[2.5]octan-6-yl)indoline-5-carboxamide]	0.05 to 0.5 µM
O=C(Nc1ccc(=O)n(C2CCC(F)(F)CC2)n1)c1cc2c(cc1N1CCC3(CC1)CC3)N(S(=O)(=O)CCO)CC2 [EX21, N-(1-(4,4-difluorocyclohexyl)-6-oxo-1,6-dihydropyridazin-3-yl)-1-((2-hydroxyethyl)sulfonyl)-6-(6-azaspiro[2.5]octan-6-yl)indoline-5-carboxamide]	< 0.05 µM
CC(C)n1nc(NC(=O)c2cc3c(cc2N2CCC4(CC2)CC4)N(S(=O)(=O)CCO)CC3)ccc1=O [EX22, 1-((2-hydroxyethyl)sulfonyl)-N-(1-isopropyl-6-oxo-1,6-dihydropyridazin-3-yl)-6-(6-azaspiro[2.5]octan-6-yl)indoline-5-carboxamide]	< 0.05 µM
Cc1cc(NC(=O)c2cc3c(cc2N2CCC4(CC2)CC4)N(C(=O)CCO)CC3)nc(N2CCC(F)(F)CC2)n1 [EX25, N-(2-(4,4-difluoropiperidin-1-yl)-6-methylpyrimidin-4-yl)-1-(3-hydroxypropanoyl)-6-(6-azaspiro[2.5]octan-6-yl)indoline-5-carboxamide]	0.5 to 15 µM

Next, values leading:

IC50	SMILES
< 0.05 µM	CN1CCCOc2c(NC(=O)c3ccc(NS(=O)(=O)CCO)cc3N3CCC4(CC3)CC4)ccnc21 [EX02, 4-((2-hydroxyethyl)sulfonamido)-N-(5-methyl-2,3,4,5-tetrahydropyrido[3,2-b][1,4]oxazepin-9-yl)-2-(6-azaspiro[2.5]octan-6-yl)benzamide]
< 0.05 µM	O=C(Nc1ccc2c(n1)N1CCOCC1CO2)c1ccc(NS(=O)(=O)CCO)cc1N1CCC2(CC1)CC2 (stereo not drawn) [EX03, 4-((2-hydroxyethyl)sulfonamido)-2-(6-azaspiro[2.5]octan-6-yl)-N-(6a,7,9,10-tetrahydro-6H-[1,4]oxazino[4,3-d]pyrido[3,2-b][1,4]oxazin-2-yl)benzamide]
0.05 to 0.5 µM	O=C(Nc1cccn(CCCC(F)(F)F)c1=O)c1ccc(NS(=O)(=O)CCO)cc1N1CCC2(CC1)CC2 [EX04, 4-((2-hydroxyethyl)sulfonamido)-N-(2-oxo-1-(4,4,4-trifluorobutyl)-1,2-dihydropyridin-3-yl)-2-(6-azaspiro[2.5]octan-6-yl)benzamide]
0.05 to 0.5 µM	O=C(Nc1ccc(=O)n(C2CCOCC2)n1)c1ccc(NS(=O)(=O)CCO)cc1N1CCC2(CC1)CC2 [EX05, 4-((2-hydroxyethyl)sulfonamido)-N-(6-oxo-1-(tetrahydro-2H-pyran-4-yl)-1,6-dihydropyridazin-3-yl)-2-(6-azaspiro[2.5]octan-6-yl)benzamide]
0.5 to 15 µM	O=C(Nc1ccc(=O)n(C2CCOCC2)c1)c1ccc(NS(=O)(=O)CCO)cc1N1CCC2(CC1)CC2 [EX06, 4-((2-hydroxyethyl)sulfonamido)-N-(6-oxo-1-(tetrahydro-2H-pyran-4-yl)-1,6-dihydropyridin-3-yl)-2-(6-azaspiro[2.5]octan-6-yl)benzamide]
< 0.05 µM	O=C(Nc1ccc2c(n1)N1CCC(F)(F)CC1CO2)c1ccc(NS(=O)(=O)CCO)cc1N1CCC2(CC1)CC2 (stereo not drawn) [EX07, N-(8,8-difluoro-6,6a,7,8,9,10-hexahydrodipyrido[3,2-b:1′,2′-d][1,4]oxazin-2-yl)-4-((2-hydroxyethyl)sulfonamido)-2-(6-azaspiro[2.5]octan-6-yl)benzamide]
< 0.05 µM	O=C(Nc1ccc(=O)n(CCCC(F)(F)F)n1)c1ccc(NS(=O)(=O)CCO)cc1N1CCC2(CC1)CC2 [EX08, 4-((2-hydroxyethyl)sulfonamido)-N-(6-oxo-1-(4,4,4-trifluorobutyl)-1,6-dihydropyridazin-3-yl)-2-(6-azaspiro[2.5]octan-6-yl)benzamide]
< 0.05 µM	O=C(Nc1ccnc2c1OCC1CC(F)(F)CCN21)c1ccc(NS(=O)(=O)CCO)cc1N1CCC2(CC1)CC2 (stereo not drawn) [EX10, N-(8,8-difluoro-6,6a,7,8,9,10-hexahydrodipyrido[3,2-b:1′,2′-d][1,4]oxazin-4-yl)-4-((2-hydroxyethyl)sulfonamido)-2-(6-azaspiro[2.5]octan-6-yl)benzamide]
